Like-named read-outs stand apart in the source and are kept apart here. Some results are limits rather than exact numbers.

One data set has as its system Trypsin. Kind of data set: Dose response assay for protease inhibitors: trypsin. The data set is classed as biochemical. The conditions noted are these: selectivity, trypsin over Factor XIa. The gist of the method: (§1)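 Glp-Pro-Arg-AMC substrate (thrombin, trypsin) or Pro-Phe-Arg-AMC/Boc-Leu-Gly-Arg-AMC (Factor Xa), diluted to 100 μM, in 20 mM Hepes pH 7.4, 150 mM NaCl, 0.02% Tween 20; enzyme diluted to 0.5 nM before addition. Two-fold serial compound dilutions; kinetic reads at 30° C. Data yield IC50 and Kon.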

In another data set the target is Thrombin (Homo sapiens (Human), UniProt P00734). Briefly: Dose response assay for protease inhibitors: thrombin. The data set is classed as biochemical. The conditions noted are these: selectivity, thrombin over Factor XIa. The gist of the method: as §1
Data set [1] is described as follows: Plasma protein binding by equilibrium dialysis. The data set is classed as in vitro ADME. The conditions noted are these: pH 7.4, pooled human plasma, 4 hours at 37° C., read-out: PPB (%). The gist of the method: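 Pooled mixed-gender human plasma spiked with compound at 10 μM was dialysed against PBS pH 7.4 for 4 h at 37°C. Both compartments were quantified by HPLC-MS/MS, and % bound was calculated from plasma vs buffer peak areas.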

Data set [2] in a line: Metabolic stability in dog hepatocytes. The data set is classed as in vitro ADME. The conditions noted are these: pooled cryopreserved hepatocytes; beagle dog hepatocytes, 2 μM compound; read-out: Dog Hepatocyte Stability (t1/2). The gist of the method:
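Pooled cryopreserved beagle hepatocytes at 500,000 cells/mL in Krebs-Henseleit buffer with 2 μM compound, 37 °C, 5% CO2, sampled out to 180 min. Acetonitrile-quenched samples analysed by LC-MS/MS; percent remaining from peak area versus time zero.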

Data set [3] can be described thus: Aqueous solubility in PBS by HPLC-UV/VIS. The data set is classed as physicochemical. The conditions noted are these: phosphate buffered saline, aqueous buffer, kinetic from dmso stock; PBS pH 7.4, 2% DMSO, 24 h at room temperature. The gist of the method: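 Compound diluted to 200 μM in PBS pH 7.4 from DMSO stock (2% DMSO final), incubated 24 h at room temperature, then centrifuged. Supernatant analysed by HPLC-UV/VIS; solubility (μM) from principal-peak area versus a 200 μM calibration standard. Range approximately 0.5–200 μM.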

With `CC[C@@H](NC(=O)N1C(=O)[C@H](Cc2cc(C)nc(NC)c2)[C@H]1C(=O)N(C)c1ccnn1C)C1CCCCC1` [Compound 1-62, (2S,3R)-3-((2-methylamino-6-methylpyridin-4-yl)methyl)-N2-(1-methyl-1H-pyrazol-5-yl)-N1-((R)-1-cyclohexylpropyl)-N2-methyl-4-oxoazetidine-1,2-dicarboxamide], the “Ratio: Trypsin/FXIa” value in the data set on Trypsin is “G (“G” indicates 1-100)”. Further, at Thrombin, the “Ratio: Thrombin/FXIa” value is given as “I (“I” indicates > 500)”. For the same compound, the fraction unbound at 4 h, 10 μM in data set [1] (both sexes) lay within 0.1 to 0.5. For the same compound, the half-life at 2 μM in data set [2] was below 1 h. This compound showed a solubility at 24 h in data set [3] above 100 µM.

Turning to `CC[C@@H](NC(=O)N1C(=O)[C@H](Cc2ccnc(N)c2)[C@H]1C(=O)N(C)c1ccnn1C)C1CCCCC1` [Compound 1-63, (2S,3R)-3-((2-aminopyridin-4-yl)methyl)-N2-(1-methyl-1H-pyrazol-5-yl)-N1-((R)-1-cyclohexylpropyl)-N2-methyl-4-oxoazetidine-1,2-dicarboxamide], the “Ratio: Trypsin/FXIa” value in the data set with Trypsin is recorded as “G (“G” indicates 1-100)”. Further, at Thrombin, the “Ratio: Thrombin/FXIa” value is “I (“I” indicates > 500)”. In addition, the fraction unbound at 4 h, 10 μM in data set [1] (both sexes) fell in the range of 0.1 to 0.5. In addition, the half-life at 2 μM in data set [2] was below 1 h. Also, the solubility at 24 h in data set [3] was above 100 µM.

In the case of `CC[C@@H](NC(=O)N1C(=O)[C@H](Cc2cc(C)nc(N)c2)[C@H]1C(=O)N(C)c1ccnn1C)C1CCCCC1` [Compound 1-67, (2S,3R)-3-((2-amino-6-methylpyridin-4-yl)methyl)-N2-(1-methyl-1H-pyrazol-5-yl)-N1-((R)-1-cyclohexylpropyl)-N2-methyl-4-oxoazetidine-1,2-dicarboxamide], the “Ratio: Trypsin/FXIa” value in the data set with Trypsin is reported as “G (“G” indicates 1-100)”. Further, the “Ratio: Thrombin/FXIa” value at Thrombin is “I (“I” indicates > 500)”. In data set [1] (both sexes), the fraction unbound at 4 h, 10 μM fell in the range of 0.1 to 0.5. In addition, in data set [2], the half-life at 2 μM lay within 1.02 to 2 h. The solubility at 24 h in data set [3] is above 100 µM.

As to `CC[C@@H](NC(=O)N1C(=O)[C@H](Cc2ccnc(N)c2)[C@H]1C(=O)N(C)c1nccn1C)c1cccc(C)c1` [Compound 1-80, (2S,3R)-3-((2-aminopyridin-4-yl)methyl)-N2-(1-methyl-1H-imidazol-2-yl)-N1-((R)-1-(3-methylphenyl)propyl)-N2-methyl-4-oxoazetidine-1,2-dicarboxamide], the “Ratio: Trypsin/FXIa” value with Trypsin is “G (“G” indicates 1-100)”. For the same compound, the “Ratio: Thrombin/FXIa” value at Thrombin was “H (“H” indicates 101-1000)”. Further, the fraction unbound at 4 h, 10 μM in data set [1] (both sexes) fell in the range of 0.1 to 0.5. For the same compound, in data set [2], the half-life at 2 μM lay in the range of 2.02 to 4 h. In data set [3], this compound showed a solubility at 24 h above 100 µM.

Turning to `CC[C@@H](NC(=O)N1C(=O)[C@H](Cc2ccnc(N)c2)[C@H]1C(=O)N(C)c1nccn1C)c1ccc(C)nc1` [Compound 1-81, (2S,3R)-3-((2-aminopyridin-4-yl)methyl)-N2-(1-methyl-1H-imidazol-2-yl)-N1-((R)-1-(6-methylpyridin-3-yl)propyl)-N2-methyl-4-oxoazetidine-1,2-dicarboxamide], in the data set on Trypsin, the “Ratio: Trypsin/FXIa” value is on record as “G (“G” indicates 1-100)”. On Thrombin, the “Ratio: Thrombin/FXIa” value is given as “H (“H” indicates 101-1000)”. Further, the fraction unbound at 4 h, 10 μM in data set [1] (both sexes) is below 0.5. The half-life at 2 μM in data set [2] was in the range of 2.02 to 4 h. The compound further yielded a solubility at 24 h in data set [3] above 100 µM.

For the compound `CC[C@@H](NC(=O)N1C(=O)[C@H](Cc2ccnc(N)c2)[C@H]1C(=O)N(C)c1nccn1C)c1ccccc1Cl` [Compound 1-83], in the data set on Trypsin, the “Ratio: Trypsin/FXIa” value is listed as “G (“G” indicates 1-100)”. For the same compound, the “Ratio: Thrombin/FXIa” value at Thrombin is recorded as “H (“H” indicates 101-1000)”. Also, in data set [1] (both), the fraction unbound at 4 h, 10 μM lay within 0.05 to 0.09. Besides, in data set [2], the half-life at 2 μM lay in the range of 2.02 to 4 h. Besides, the solubility at 24 h in data set [3] is above 100 µM.

With `CC[C@@H](NC(=O)N1C(=O)[C@H](Cc2ccnc(N)c2)[C@H]1C(=O)N(C)c1cnn(C)c1)c1ccccc1` [Compound 1-88, (2S,3R)-3-((2-aminopyridin-4-yl)methyl)-N2-(1-methyl-1H-pyrazol-4-yl)-N1-((R)-1-phenylpropyl)-N2-methyl-4-oxoazetidine-1,2-dicarboxamide], the “Ratio: Trypsin/FXIa” value in the data set with Trypsin is listed as “G (“G” indicates 1-100)”. For the same compound, the “Ratio: Thrombin/FXIa” value at Thrombin is reported as “G (“G” indicates 1-100)”. In addition, in data set [1] (both sexes), the fraction unbound at 4 h, 10 μM was 0.1 to 0.5. The half-life at 2 μM in data set [2] was above 4 h. In data set [3], this compound yielded a solubility at 24 h above 100 µM.

`CC[C@@H](NC(=O)N1C(=O)[C@H](Cc2cc(C)nc(N)c2)[C@H]1C(=O)N(C)c1ccn(C)n1)c1cccc(Cl)c1` [Compound 1-89, (2S,3R)-3-((2-amino-6-methylpyridin-4-yl)methyl)-N2-(1-methyl-1H-pyrazol-3-yl)-N1-((R)-1-(3-chlorophenyl)propyl)-N2-methyl-4-oxoazetidine-1,2-dicarboxamide]: the “Ratio: Trypsin/FXIa” value in the data set with Trypsin is given as “G (“G” indicates 1-100)”. Moreover, on Thrombin, the “Ratio: Thrombin/FXIa” value was “H (“H” indicates 101-1000)”. Also, the fraction unbound at 4 h, 10 μM in data set [1] (both sexes) lay in the range of 0.1 to 0.5. Besides, in data set [2], the half-life at 2 μM is above 4 h. In data set [3], the solubility at 24 h was above 100 µM.

As for `CC[C@@H](NC(=O)N1C(=O)[C@H](Cc2ccnc(N)c2)[C@H]1C(=O)N(C)c1cn(C)cn1)c1ccccc1` [Compound 1-90, (2S,3R)-3-((2-aminopyridin-4-yl)methyl)-N2-(1-methyl-1H-imidazol-4-yl)-N1-((R)-1-phenylpropyl)-N2-methyl-4-oxoazetidine-1,2-dicarboxamide], the “Ratio: Trypsin/FXIa” value with Trypsin is recorded as “G (“G” indicates 1-100)”. At Thrombin, the “Ratio: Thrombin/FXIa” value is “H (“H” indicates 101-1000)”. For the same compound, the fraction unbound at 4 h, 10 μM in data set [1] (both sexes) was 0.1 to 0.5. Also, the half-life at 2 μM in data set [2] is 2.02 to 4 h. For the same compound, the solubility at 24 h in data set [3] was above 100 µM.

As for `CC[C@@H](NC(=O)N1C(=O)[C@H](Cc2ccnc(N)c2)[C@H]1C(=O)N(C)c1ccn(C)n1)c1cccc(Cl)c1` [Compound 1-91, (2S,3R)-3-((2-aminopyridin-4-yl)methyl)-N2-(1-methyl-1H-pyrazol-3-yl)-N1-((R)-1-(3-chlorophenyl)propyl)-N2-methyl-4-oxoazetidine-1,2-dicarboxamide], in the data set with Trypsin, the “Ratio: Trypsin/FXIa” value is on record as “G (“G” indicates 1-100)”. Also, the “Ratio: Thrombin/FXIa” value at Thrombin is listed as “H (“H” indicates 101-1000)”. Besides, in data set [1] (both sexes), the fraction unbound at 4 h, 10 μM is 0.1 to 0.5. Moreover, in data set [2], the half-life at 2 μM is 1.02 to 2 h. Also, the solubility at 24 h in data set [3] is above 100 µM.

With `CC[C@@H](NC(=O)N1C(=O)[C@H](Cc2ccnc(N)c2)[C@H]1C(=O)N(C)c1ccnn1C)c1ccccc1` [Compound 1-92, (2S,3R)-3-((2-aminopyridin-4-yl)methyl)-N2-(1-methyl 1H-pyrazol-5-yl)-N1-((R)-1-phenylpropyl)-N2-methyl-4-oxoazetidine-1,2-dicarboxamide], the “Ratio: Trypsin/FXIa” value in the data set with Trypsin was “G (“G” indicates 1-100)”. At Thrombin, the “Ratio: Thrombin/FXIa” value is “H (“H” indicates 101-1000)”. The fraction unbound at 4 h, 10 μM in data set [1] (both sexes) lay in the range of 0.1 to 0.5. Further, the half-life at 2 μM in data set [2] was in the range of 2.02 to 4 h. The solubility at 24 h in data set [3] is above 100 µM.

As to `CC[C@@H](NC(=O)N1C(=O)[C@H](Cc2cc(C)nc(N)c2)[C@H]1C(=O)N(C)c1nccn1C)c1cc(F)ccc1F` [Compound 1-137, (2S,3R)-3-((2-amino-6-methylpyridin-4-yl)methyl)-N2-(1-methyl-1H-imidazol-2-yl)-N1-((R)-1-(2,5-difluorophenyl)propyl)-N2-methyl-4-oxoazetidine-1,2-dicarboxamide], the “Ratio: Trypsin/FXIa” value with Trypsin is on record as “G (“G” indicates 1-100)”. Also, at Thrombin, the “Ratio: Thrombin/FXIa” value is “H (“H” indicates 101-1000)”. For the same compound, in data set [1] (both sexes), the fraction unbound at 4 h, 10 μM lay within 0.05 to 0.09. Moreover, in data set [2], the half-life at 2 μM was above 4 h. In addition, the solubility at 24 h in data set [3] is above 100 µM.

Values taken from patent US11691962B2 (eXIthera Pharmaceuticals, Inc., priority 2018, dated 2023).
